Reference: publication PMC7423924, “A fluorogenic cyclic peptide for imaging and quantification of drug-induced apoptosis” (Nature Communications, 2020)
Values joined by “and” are separate entries in the source; they are usually repeats but may differ in a detail not shown here. Equal values may be shown once.

B1: Annexin-FITC: FITC-labeled annexin V (protein, UniProt P08758 2-320, looked up)
Annexin A5: AQVLRGTVTDFPGFDERADAETLRKAMKGLGTDEESILTLLTSRSNAQRQEISAAFKTLFGRDLLDDLKSELTGKFEKLIVALMKPSRLYDAYELKHALKGAGTNEKVLTEIIASRTPEELRAIKQVYEEEYGSSLEDDVVGDTSGYYQRMLVVLLQANRDPDAGIDEAQVEQDAQALFQAGELKWGTDEEKFITIFGTRSVSHLRKVFDKYMTISGFQIEETIDRETSGNLEQLLLAVVKSIRSIPAYLAETLYYAMKGAGTDDHTLIRVMVSRSEIDLFNIRKEFRKNFATSLYSMIKGDTSGDYKKALLLLCGEDD
modifications: FITC label
notes: FITC-labeled annexin V

Legend:
[1] = set-up: method as in 2 sources, ref Table 1 ||| ref [8],[60],[19],[61],[63],[64],[66],[67] = [8]; PMID 19966809; doi:10.1038/nmeth.1405; 8. Kim YE Chen J Chan JR Langen R Engineering a polarity-sensitive biosensor for time-lapse imaging of apoptotic processes and degeneration Nat. Methods 2010 7 67 73 19966809 10.1038/nmeth.1405 PMC284 || [60]; PMID 20671723; doi:10.1038/nprot.2010.101; 60. Kim YE Chen J Langen R Chan JR Monitoring apoptosis and neuronal degeneration by real-time detection of phosphatidylserine externalization using a polarity-sensitive indicator of viability and apo || [19]; PMID 17051335; doi:10.1007/s10495-006-0282-7; 19. Aloya R Molecular imaging of cell death in vivo by a novel small molecule probe Apoptosis 2006 11 2089 2101 17051335 10.1007/s10495-006-0282-7 PMC2782107 || [61]; PMID 16317537; doi:10.1007/s00259-005-1905-x; 61. Damianovich M ApoSense: a novel technology for functional molecular imaging of cell death in models of acute renal tubular necrosis Eur. J. Nucl. Med. Mol. Imaging 2006 33 281 291 16317537 10.1007 || [63]; PMID 15113694; doi:10.1016/j.ab.2004.01.020; 63. Garcia Fernandez MI Ceccarelli D Muscatello U Use of the fluorescent dye 10-N-nonyl acridine orange in quantitative and location assays of cardiolipin: a study on different experimental models Ana; conditions: cited from earlier work; for Brightness (φ × ε): Table 1, commercial probes, ref [8],[60],[19],[61],[63],[64],[66],[67]
[2] = tested on: human neutrophils; assay: CDKi-induced, caspase-dependent neutrophil apoptosis detected with Apo-15; type: cell-based; conditions: R-roscovitine 20 µM (CDKi), QVD 10 μM, single replicates Data 1-4
Protocol: First, we confirmed that Apo-15 could detect CDKi-induced apoptosis in vitro. […] Apo-15 staining of CDKi-induced apoptosis was also caspase-dependent as confirmed by a significant reduction in the fluorescent signal after treatment with the caspase inhibitor QVD[34] (Fig. 5a). Next, we induced ALI in vivo in mice by intratracheal administration of E. coli-derived LPS (1 μg per mouse), and the apoptotic load in the lungs relative to saline control was increased by intraperitoneal administration of CDKi AT7519[38] (Fig. 5b). In all mice, we administered Apo-15 in vivo and, 30 min later, we collected bronchoalveolar lavage fluid (BALF) together with lung tissues. BALF and lung slices from LPS-only and LPS + CDKi mice were analyzed by multiparameter flow cytometry to determine the proportion of apoptotic cells that had been stained by Apo-15 in vivo (gating strategy in Supplementary Fig. 15). […] Furthermore, we quantified the effects of CDKi-induced apoptosis in vivo by measuring the percentages of apoptotic neutrophils in total cell counts. […] We confirmed that CD45 + Ly6G+ cells labeled by Apo-15 in vivo were apoptotic by co-staining with AF647-Annexin V ex vivo (Fig. 5d). Next, we acquired fluorescence microscopy images of lung tissue sections from mice under different regimes (Fig. 5c, e). […]

[3] = tested on: apoptotic neutrophils; assay: Signal-to-noise ratios in imaging of apoptotic neutrophils; type: cell-based, human; conditions: apoptotic cells, excitation 488 nm, same settings; response to reviewers
Protocol: Signal-to-noise ratios for apoptotic neutrophils labeled with FITC-Annexin V or Apo-15 were determined after image acquisition under the same laser power and gain and analysis using ImageJ. Briefly, raw images were converted into 16-bit grayscale images and average fluorescence intensities in labeled cells and in the background were measured (≥150 points per condition). Experiments were performed in triplicate.
Supplementary Figure 14. Quantification of the fluorescence signal-to-noise (S/N) ratios in apoptotic neutrophils after staining with Apo -15 (100 nM) or FITC-Annexin V (25 nM) and image acquisition under the same experimental conditions
(excitation/emission filters: 488 nm /525 nm). Data presented as mean values±SEM (n=3-4 independent cells from 3 independent experiments). Source data are provided […]
FIT C, AlexaFluor647). […]
In imaging experiment in mice, the fluorescence signals were not found along membranes in the cells. […]
First, we have included flow cytometric data from BALs of LPS-treated mice that were not given Apo- 15, which conf irm ed the lack of green fluorescence in viable CD45+CD11c+ Annexin V− macrophages (new Supplementary Figure 15 and new Supplementary Figure 18 for the results). […]

Row | Molecule | Brightness (φ × ε) [1] | Apo-15-positive cells (flow cytometry) [2] | other results
1 | CN(C)c1cccc2c(S(=O)(=O)N[C@@H](CSSC[C@H](NS(=O)(=O)c3cccc4c(N(C)C)cccc34)C(=O)O)C(=O)O)cccc12 [N,N′-Didansyl-L-cystin] | 3000 |  | Brightness ([1]; other environmentally-sensitive probes, ref Table 1): 3000 M⁻¹ cm⁻¹
2 | CC[C@H](CO)Nc1nc(NCc2ccccc2)c2ncn(C(C)C)c2n1 [CDKi, R-roscovitine] |  | 57.1 and 64.3 and 39.1 and 90.1 | 
3 | CC(C)[C@H](NC(=O)c1ccc2ccccc2n1)C(=O)N[C@@H](CC(=O)O)C(=O)COc1c(F)cccc1F [QVD] |  | 3.0 and 7.0 and 2.9 and 4.0 | 
4 | CCCCCCCCC[n+]1c2cc(N(C)C)ccc2cc2ccc(N(C)C)cc21.[Br-] [Nonyl acridine orange] | 20,000 |  | 
5 | CC[N+](C)(CC)CCC[n+]1c(-c2ccccc2)c2cc(N)ccc2c2ccc(N)cc21.[I-].[I-] [PI, propidium iodide] | <100 |  | 
6 | B1 |  |  | Signal-to-noise ratio [3]: ~100 fold
